# Experimental data from patent publication US20090029996A1, “Pyridazin-3(2H)-One Derivatives And Their Use As Pde4 Inhibitors” (priority 2004, published 2009).
# Biological target: PDE4 (Homo sapiens, UniProt Q07343)
# Assay: PDE4 Assay Procedure ([3H]-cAMP SPA)
# Format: biochemical
# Conditions: 15 nM [3H]-cAMP, 1 hour at room temperature, SPA beads; read-out: HPDE4B or IC50 PDE4
# Description: Compounds to be tested were resuspended in DMSO at a stock concentration of 1 mM. […] These dilutions were done in 96-well plates. In some cases, plates containing diluted compounds were frozen before being assayed. In these cases, the plates were thawed at room temperature and stirred for 15 minutes.
# Ten microliters of the diluted compounds were poured into a “low binding” assay plate. […] The reaction was initiated by adding ten microliters of a solution containing PDE4. The plate was then incubated under stirring for 1 hour at room temperature. After incubation the reaction was stopped with 50 microlitres of SPA beads, and the reaction was allowed to incubate for another 20 minutes at room temperature before measuring radioactivity using standard instrumentation.
# The reaction mixture was prepared by adding 90 ml of H2O to 10 ml of 10× assay buffer (500 mM Tris pH 7.5, 83 mM MgCl2, 17 mM EGTA), and 40 microlitres 1 μCi/μL [3H]-cAMP. SPA beads solution was prepared by adding 500 mg to […] H2O for a final concentration of 20 mg/ml beads and 18 mM zinc sulphate.
# Sequence of PDE4 (Q07343 324-700 limits assumed): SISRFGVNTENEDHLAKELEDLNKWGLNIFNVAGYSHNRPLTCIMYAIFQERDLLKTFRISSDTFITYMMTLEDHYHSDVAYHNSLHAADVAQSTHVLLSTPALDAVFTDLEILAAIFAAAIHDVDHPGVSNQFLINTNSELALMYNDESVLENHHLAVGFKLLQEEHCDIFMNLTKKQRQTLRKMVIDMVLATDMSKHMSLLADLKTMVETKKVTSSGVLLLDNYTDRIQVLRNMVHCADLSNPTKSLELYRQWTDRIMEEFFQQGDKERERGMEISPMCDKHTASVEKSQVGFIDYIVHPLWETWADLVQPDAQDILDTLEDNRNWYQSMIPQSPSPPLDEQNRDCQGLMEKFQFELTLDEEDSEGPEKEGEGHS
row,IC50,SMILES
1,0.3 nM,"CCn1nc(-c2ccccc2)c(C(=O)OC(C)OC(=O)OC2CCCCC2)c(Nc2cccnc2)c1=O (single isomer, unassigned; (-)) [Example 132, (−)-1-{[(Cyclohexyloxy)carbonyl]oxy}ethyl 1-ethyl-6-oxo-3-phenyl-5-(pyridin-3-ylamino)-1,6-dihydropyridazine-4-carboxylate]"
2,3.4 nM,"CCOC(=O)COC(=O)c1c(-c2ccsc2)nn(CC)c(=O)c1Nc1cnccc1C [Example 122, 2-Ethoxy-2-oxoethyl 1-ethyl-5-[(4-methylpyridin-3-yl)amino]-6-oxo-3-(3-thienyl)-1,6-dihydropyridazine-4-carboxylate]"
3,5.7 nM,"CCn1nc(-c2ccc(C)cc2)c(C(=O)OCOC(=O)C(C)(C)C)c(Nc2cccnc2)c1=O [Example 68, [(2,2-Dimethylpropanoyl)oxy]methyl 1-ethyl-3-(4-methylphenyl)-6-oxo-5-(pyridin-3-ylamino)-1,6-dihydropyridazine-4-carboxylate]"
4,2.2 nM,"CCn1nc(-c2cccc(C)c2)c(C(=O)OCOC(=O)C(C)(C)C)c(Nc2cccnc2)c1=O [Example 35, [(2,2-Dimethylpropanoyl)oxy]methyl 1-ethyl-3-(3-methylphenyl)-6-oxo-5-(pyridin-3-ylamino)-1,6-dihydropyridazine-4-carboxylate]"
5,1.2 nM,"CCn1nc(-c2ccccc2)c(C(=O)OCc2oc(=O)oc2C)c(Nc2cnccc2C)c1=O [Example 142, (5-Methyl-2-oxo-1,3-dioxol-4-yl)methyl 1-ethyl-5-[(4-methylpyridin-3-yl)amino]-6-oxo-3-phenyl-1,6-dihydropyridazine-4-carboxylate]"
6,4.6 nM,"CCn1nc(-c2ccccc2)c(C(=O)OC(C)OC(=O)OC2CCCCC2)c(Nc2cnccc2C)c1=O (stereo not drawn) [Example 76, 1-{[(Cyclohexyloxy)carbonyl]oxy}ethyl 1-ethyl-5-[(4-methylpyridin-3-yl)amino]-6-oxo-3-phenyl-1,6-dihydropyridazine-4-carboxylate]"
7,0.1 nM,"CCn1nc(-c2ccccc2)c(C(=O)OCCl)c(Nc2cncc3ccccc23)c1=O [Example 164, Chloromethyl 1-ethyl-5-(isoquinolin-4-ylamino)-6-oxo-3-phenyl-1,6-dihydropyridazine-4-carboxylate]"

# More lines, now with the values behind:
row,SMILES,IC50
1,"CCn1nc(-c2ccccc2)c(C(=O)OCOC(=O)C(C)(C)C)c(Nc2cncc3ccccc23)c1=O [Example 31, [(2,2-Dimethylpropanoyl)oxy]methyl 1-ethyl-5-(isoquinolin-4-ylamino)-6-oxo-3-phenyl-1,6-dihydropyridazine-4-carboxylate]",0.07 nM
2,"CCn1nc(-c2ccccc2)c(C(=O)OCC(=O)OCc2ccccc2)c(Nc2cccnc2)c1=O [Example 16, 2-(Benzyloxy)-2-oxoethyl 1-ethyl-6-oxo-3-phenyl-5-(pyridin-3-ylamino)-1,6-dihydropyridazine-4-carboxylate]",0.22 nM
3,"CCOC(=O)OC(C)OC(=O)c1c(-c2ccccc2)nn(CC)c(=O)c1Nc1cnccc1C (stereo not drawn) [Example 27, 1-[(Ethoxycarbonyl)oxy]ethyl 1-ethyl-5-[(4-methylpyridin-3-yl)amino]-6-oxo-3-phenyl-1,6-dihydropyridazine-4-carboxylate]",9.1 nM
4,"CCCC(=O)OCOC(=O)c1c(-c2ccccc2)nn(CC)c(=O)c1Nc1cccnc1 [Example 17, (Butyryloxy)methyl 1-ethyl-6-oxo-3-phenyl-5-(pyridin-3-ylamino)-1,6-dihydropyridazine-4-carboxylate]",3.6 nM
5,"CCn1nc(-c2ccccc2)c(C(=O)OCOC(=O)C(C)(C)C)c(Nc2cnccc2C)c1=O [Example 26, [(2,2-dimethylpropanoyl)oxy]methyl 1-ethyl-5-[(4-methylpyridin-3-yl)amino]-6-oxo-3-phenyl-1,6-dihydropyridazine-4-carboxylate]",2.3 nM
6,"CCn1nc(-c2ccccc2)c(C(=O)OCOC(C)=O)c(Nc2cccnc2)c1=O [Example 19, (Acetyloxy)methyl 1-ethyl-6-oxo-3-phenyl-5-(pyridin-3-ylamino)-1,6-dihydropyridazine-4-carboxylate]",11 nM
7,"CCn1nc(-c2ccccc2)c(C(=O)OC2OC(=O)c3ccccc32)c(Nc2cccnc2)c1=O (stereo not drawn) [Example 18, 3-Oxo-1,3-dihydro-2-benzofuran-1-yl 1-ethyl-6-oxo-3-phenyl-5-(pyridin-3-ylamino)-1,6-dihydropyridazine-4-carboxylate]",2.1 nM
8,"CCn1nc(-c2ccccc2)c(C(=O)OCOC(=O)C(C)(C)C)c(Nc2cccnc2)c1=O [Example 23, [(2,2-Dimethylpropanoyl)oxy]methyl 1-ethyl-6-oxo-3-phenyl-5-(pyridin-3-ylamino)-1,6-dihydropyridazine-4-carboxylate]",0.94 nM
